Test results taken from ChEMBL document CHEMBL4024727, “Synthesis and antimycobacterial screening of new thiazolyl-oxazole derivatives” (Eur J Med Chem, 2017).
pIC50: −log10 of the molar value. Converted amounts (≈) assume the structure as drawn.

What was measured:
Assay type in all cases: functional
[1] = tested on: Mycobacterium tuberculosis; assay: Growth inhibition of Mycobacterium bovis BCG ATCC 35743 at 30 ug/ml by nitrate reductase based two-fold dilution assay relative to control; conditions: BCG str. ATCC 35743, read-out: GI
[2] = tested on: Mycobacterium tuberculosis; assay: Antitubercular activity against Mycobacterium tuberculosis H37Ra ATCC 25177 dormant stage by XTT dye based two-fold dilution method
[3] = tested on: Staphylococcus aureus; assay: Antibacterial activity against Staphylococcus aureus NCIM 2602 measured after 12 hrs; conditions: NCIM 2602, 12 h
[4] = tested on: Mycobacterium tuberculosis; assay: Antitubercular activity against Mycobacterium bovis BCG ATCC 35743 dormant stage by nitrate reductase based two-fold dilution assay; conditions: BCG str. ATCC 35743
[5] = tested on: Mycobacterium tuberculosis; assay: Growth inhibition of Mycobacterium tuberculosis H37Ra ATCC 25177 at 30 ug/ml by XTT dye based two-fold dilution method relative to control; conditions: read-out: GI
[6] = tested on: Pseudomonas fluorescens; assay: Antibacterial activity against Pseudomonas fluorescens NCIM 2059 measured after 8 hrs; conditions: NCIM 2059, 8 h
[7] = tested on: Bacillus subtilis; assay: Growth inhibition of Bacillus subtilis NCIM 2162 at 1 ug/ml measured after 12 hrs relative to control; conditions: NCIM 2162, 12 h, read-out: GI
[8] = tested on: Staphylococcus aureus; assay: Growth inhibition of Staphylococcus aureus NCIM 2602 at 1 ug/ml measured after 12 hrs relative to control; conditions: NCIM 2602, 12 h, read-out: GI
[9] = tested on: Mycobacterium tuberculosis; assay: Growth inhibition of Mycobacterium tuberculosis H37Ra ATCC 25177 at 3 ug/ml by XTT dye based two-fold dilution method relative to control; conditions: read-out: GI
[10] = tested on: Staphylococcus aureus; assay: Growth inhibition of Staphylococcus aureus NCIM 2602 at 30 ug/ml measured after 12 hrs relative to control; conditions: NCIM 2602, 12 h, read-out: GI
[11] = tested on: Pseudomonas fluorescens; assay: Growth inhibition of Pseudomonas fluorescens NCIM 2059 at 1 ug/ml measured after 8 hrs relative to control; conditions: NCIM 2059, 8 h, read-out: GI
[12] = tested on: Staphylococcus aureus; assay: Growth inhibition of Staphylococcus aureus NCIM 2602 at 10 ug/ml measured after 12 hrs relative to control; conditions: NCIM 2602, 12 h, read-out: GI
[13] = tested on: Bacillus subtilis; assay: Growth inhibition of Bacillus subtilis NCIM 2162 at 10 ug/ml measured after 12 hrs relative to control; conditions: NCIM 2162, 12 h, read-out: GI
[14] = tested on: Escherichia coli; assay: Growth inhibition of Escherichia coli NCIM 2576 at 30 ug/ml measured after 8 hrs relative to control; conditions: NCIM 2576, 8 h, read-out: GI
[15] = tested on: Mycobacterium tuberculosis; assay: Growth inhibition of Mycobacterium bovis BCG ATCC 35743 at 10 ug/ml by nitrate reductase based two-fold dilution assay relative to control; conditions: BCG str. ATCC 35743, read-out: GI
[16] = tested on: Mycobacterium tuberculosis; assay: Growth inhibition of Mycobacterium tuberculosis H37Ra ATCC 25177 at 10 ug/ml by XTT dye based two-fold dilution method relative to control; conditions: read-out: GI
[17] = tested on: Bacillus subtilis; assay: Antibacterial activity against Bacillus subtilis NCIM 2162 measured after 12 hrs; conditions: NCIM 2162, 12 h
[18] = tested on: Pseudomonas fluorescens; assay: Growth inhibition of Pseudomonas fluorescens NCIM 2059 at 10 ug/ml measured after 8 hrs relative to control; conditions: NCIM 2059, 8 h, read-out: GI
[19] = tested on: Pseudomonas fluorescens; assay: Growth inhibition of Pseudomonas fluorescens NCIM 2059 at 30 ug/ml measured after 8 hrs relative to control; conditions: NCIM 2059, 8 h, read-out: GI
[20] = tested on: Escherichia coli; assay: Antibacterial activity against Escherichia coli NCIM 2576 measured after 8 hrs; conditions: NCIM 2576, 8 h
[21] = tested on: Bacillus subtilis; assay: Growth inhibition of Bacillus subtilis NCIM 2162 at 30 ug/ml measured after 12 hrs relative to control; conditions: NCIM 2162, 12 h, read-out: GI
[22] = tested on: Escherichia coli; assay: Growth inhibition of Escherichia coli NCIM 2576 at 1 ug/ml measured after 8 hrs relative to control; conditions: NCIM 2576, 8 h, read-out: GI
[23] = tested on: Mycobacterium tuberculosis; assay: Growth inhibition of Mycobacterium bovis BCG ATCC 35743 at 1 ug/ml by nitrate reductase based two-fold dilution assay relative to control; conditions: BCG str. ATCC 35743, read-out: GI
[24] = tested on: Escherichia coli; assay: Growth inhibition of Escherichia coli NCIM 2576 at 10 ug/ml measured after 8 hrs relative to control; conditions: NCIM 2576, 8 h, read-out: GI

| Structure (SMILES) | inhibition of growth at 30 µg/mL [1] | pIC50 [2] | MIC90 [2] | MIC [3] | pIC50 [4] | MIC [6] | inhibition of growth at 1 µg/mL [7] | inhibition of growth at 1 µg/mL [8] | inhibition of growth at 30 µg/mL [10] | inhibition of growth at 1 µg/mL [11] | inhibition of growth at 10 µg/mL [12] | inhibition of growth at 10 µg/mL [13] | inhibition of growth at 30 µg/mL [14] | MIC [17] | inhibition of growth at 10 µg/mL [18] | inhibition of growth at 30 µg/mL [19] | MIC [20] | inhibition of growth at 30 µg/mL [21] | inhibition of growth at 1 µg/mL [22] | inhibition of growth at 10 µg/mL [24] | other results |
| --- | --- | --- | --- | --- | --- | --- | --- | --- | --- | --- | --- | --- | --- | --- | --- | --- | --- | --- | --- | --- | --- |
| Cc1nc(-c2ccccc2)oc1-c1csc(-c2cccc(Cl)c2)n1 | 40% | < 4.00 | > 100 µM | > 100 µM | < 4.00 | > 100 µM | 24.8% | 20.5% | 69.4% | 23.5% | 55.6% | 57.3% | 68.2% | > 100 µM | 56.2% | 65.8% | > 100 µM | 69.8% | 24.9% | 51.8% | MIC90 [4]: > 100 µM; inhibition of growth at 30 µg/mL [5]: 27%; inhibition of growth at 3 µg/mL [9]: 12%; inhibition of growth at 10 µg/mL [15]: 26%; inhibition of growth at 10 µg/mL [16]: 14%; inhibition of growth at 1 µg/mL [23]: 26% |
| CC1(C)S[C@@H]2[C@H](NC(=O)[C@H](N)c3ccccc3)C(=O)N2[C@H]1C(=O)O [AMPICILLIN] |  |  |  | 2.86 µM (≈ 0.999 µg/mL) |  | 12.5 µM (≈ 4.36 µg/mL) | 90% | 98.2% | 99.4% | 96.4% | 98.9% | 94.5% | 100% | 29.2 µM (≈ 10.2 µg/mL) | 97.7% | 98.8% | 4.18 µM (≈ 1.46 µg/mL) | 96.8% | 97.5% | 97.9% |  |
| Cc1ccc(-c2nc(-c3oc(-c4ccc(F)cc4)nc3C)cs2)cc1 | 5% | < 4.00 | > 100 µM | > 100 µM | < 4.00 | > 100 µM | 7.61% | 6.75% | 22.3% | 2.41% | 12.8% | 10.7% | 23.7% | > 100 µM | 10.4% | 20.6% | > 100 µM | 22% | 6.65% | 10.5% | MIC90 [4]: > 100 µM; inhibition of growth at 30 µg/mL [5]: 5%; inhibition of growth at 10 µg/mL [15]: 5%; inhibition of growth at 10 µg/mL [16]: 3%; inhibition of growth at 1 µg/mL [23]: 3% |
| Cc1nc(-c2ccc(F)cc2)oc1-c1csc(-c2ccc(F)cc2)n1 | 20% | < 4.00 | > 100 µM | > 100 µM | < 4.00 | > 100 µM | 40.5% | 43% | 67% | 40.6% | 51.4% | 55.3% | 62.5% | > 100 µM | 55.3% | 63.4% | > 100 µM | 63.8% | 43.8% | 59% | MIC90 [4]: > 100 µM; inhibition of growth at 30 µg/mL [5]: 6%; inhibition of growth at 10 µg/mL [15]: 6%; inhibition of growth at 10 µg/mL [16]: 5%; inhibition of growth at 1 µg/mL [23]: 3% |
